Data as given in patent US20180346513A1, “METHOD FOR OBTAINING TUMOR PEPTIDES AND USES THEREOF” (ISTITUTO EUROPEO DI ONCOLOGIA S.R.L., priority 2015, published 2018).
Where a SMILES comes first, the peptide text is derived from it. The star is where a group is joined. Cbz = O=C(OCc1ccccc1)*

Experiments:
Salmonella SL3261AT = assay: Antibody response (total IgG, ELISA) to Salmonella after immunization with supernatant in IFA; assay type: in vivo, mice; conditions: B16 cells treated with inhibitor before supernatant collection
Method: (§1) Mice were immunized subcutaneusly with 100 μL of emulsion with supernatant containing released peptides and either Freund's Complete Adjuvant (CFA) or Freund's Incomplete Adjuvant (IFA). Nine days after the immunization, mice were killed, popliteal lymph nodes were smashed and cells were plated in flat-bottom 96-well plates and stimulated with PPD (3 μg/mL), OVA protein (30 μg/mL), OVA peptide 323-339 (3 μg/mL) or OVA peptide 257-264 (3 μg/mL). After 72 hours, the supernatant was collected and IFN-γ production was measured by ELISA.
(§2) To evaluate antibody response mice were killed four weeks after immunization, and serum was collected. The antibody titer to Salmonella and B16 antigens was evaluated by ELISA.
(§3) In order to identify the type of released tumor antigens, C57BL/6J mice were immunized subcutaneously with supernatant obtained from Salmonella infected or uninfected B16 cells treated or not with the gap-junction blocker (heptanol) or the proteasome inhibitor (MG132), emulsified with Freund's Incomplete adjuvant (IFA). Four weeks later inventors evaluated the amount of total IgG specific to Salmonella SL3261AT and to mouse melanoma cell line B16 by ELISA.

[1] = system: mouse melanoma cell line B16; assay: Antibody response (total IgG, ELISA) to B16 after immunization with supernatant in IFA; assay type: in vivo, mice; conditions: B16 cells treated with inhibitor before supernatant collection
Method: as §1, §2, §3

[2] = target: T1, connexin hemichannels on the surface of melanoma cells (Mus musculus, UniProt P23242); assay: Adenosine 5'-triphosphate (ATP) bioluminescent assay, extracellular ATP of B16 and B16 OVA cells; assay type: cell-based; conditions: B16 and B16 OVA cells pretreated with heptanol (1 mM)
T1 construct: opening of connexin hemichannels on the surface of melanoma cells; endogenous in cells; host or cells: B16 and B16 OVA mouse melanoma cells
T1 sequence (P23242 2-382): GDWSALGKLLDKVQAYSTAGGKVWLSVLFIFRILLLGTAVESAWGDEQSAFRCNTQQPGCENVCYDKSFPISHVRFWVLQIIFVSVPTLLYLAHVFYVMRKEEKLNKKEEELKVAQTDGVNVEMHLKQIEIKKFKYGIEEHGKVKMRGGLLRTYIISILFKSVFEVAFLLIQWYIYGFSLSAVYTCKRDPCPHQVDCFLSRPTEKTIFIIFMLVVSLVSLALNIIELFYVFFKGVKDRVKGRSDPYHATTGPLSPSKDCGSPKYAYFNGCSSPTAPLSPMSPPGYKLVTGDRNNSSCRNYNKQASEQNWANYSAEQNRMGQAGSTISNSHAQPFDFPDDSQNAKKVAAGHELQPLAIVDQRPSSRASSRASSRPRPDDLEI
Method: Single bacterial colonies were grown overnight and restarted the next day to reach an absorbance at 600 nm ranging between 0.550 and 0.650 corresponding to 0,550-0,650×10^9 colony—forming units (CFUs)/mL. Tumor cells were incubated with or without Gap Junctions blocker, Heptanol (1 mM) for 1 hour and half at 37° C. Then, cells were incubated with bacteria for 1 hour and half at 37° C. at a cell-to-bacteria ratio of 1:50, in the appropriate medium without antibiotics. After incubation, the cells were washed and incubated at 37° C. in medium supplemented with gentamicin ([…]) for 2 hours. […]
Adenosine 5′-triphosphate (ATP) Biolumescent Assay (CellTiter-Glo Luminescent cell viability Assay, Promega) allow to measure the quantity of ATP containing in the samples. […]
Briefly, 100 μL of Assay Mix solution were added to a reaction vial for 3 minutes at room temperature; then rapidly were added […] of sample diluent, mixed and immediately measured the amount of light produced. […]
In order to assess whether Salmonella is able to stimulate the opening of connexin hemichannels on the surface of melanoma cells, inventors measured ATP extracellular concentration using an adenosine 5′-thriphosfate (ATP) bioluminescent assay (as described in Materials and Methods) in Salmonella treated B16 cells. […]

[3] = system: Mart-1 (26-35) specific CTLs; assay: IFN-gamma production of Mart-1 specific CTLs cocultured with moDCs or PDC loaded with supernatant; assay type: cell-based, human
Method: To generate peptide-specific CTLs from PBMC, 106 PBMC HLA-A2+ were cultured in 1 mL of RPMI 1640 medium (supplemented with 5% human serum, 2 mM L-Glutamine, 100 U/mL Penicillin, 100 μg/mL Streptomycin, 10 μg/mL Gentamicin, 10 μg/mL beta-mercaptoethanol and 1% nonessential amino acids) in 24-well-plates. To this, 2×106 Mart-1-pulsed and irradiated (10 Gy) PBMC (HLA-A2) were added as antigen presenting cells in the same medium supplemented with 100 U/mL IL-2. To pulse PBMC they were incubated for 90 minutes at 37° C. in RPMI supplemented with 50 μM of peptide. After incubation, cell were washed twice and irradiated before mixing with the responding cells. The cells were stimulated at intervals of 10 days with irradiated peptide-pulsed autologous PBMC and 100 U/mL IL-2.
To evaluate the release of antigenic peptides inventors infected human melanoma cells SKmel24 and 624.38 with Salmonella TY21a in presence or not of heptanol and the supernatant was harvested as described in Materials and Methods.
After 72 hours of coculture, the amount of IFN-gamma secretion was measured by ELISA.

C57BL/6J mice = assay: In vivo immunization with supernatant in CFA, IFN-gamma after in vitro recall of lymph node cells; conditions: B16 OVA cells treated with heptanol
Method: Mice were immunized subcutaneusly with 100 μL of emulsion with supernatant containing released peptides and either Freund's Complete Adjuvant (CFA) or Freund's Incomplete Adjuvant (IFA). […] After 72 hours, the supernatant was collected and IFN-γ production was measured by ELISA.
To investigate whether the tumor peptides released from infected tumor cells could induce an in vivo immune response, C57BL/6J mice were immunized in the footpad with supernatant, obtained from B16 OVA cells infected or not with Salmonella SL3261AT, emulsified with Freund's complete adjuvant (CFA).
Briefly, nine days after immunization, the popliteal lymph nodes were removed and cells were stimulated in vitro with PPD (Tuberculin purified protein derivated), as a positive control, and OVA protein. After 72 hours of incubation, the amount of IFN-gamma secretion was assessed by ELISA to evaluate the activation of immune cells.

[4] = system: MHC class I complex on the surface of T2 cells; assay: T2 assay for peptide binding (stabilization of HLA-A0201 on T2 cells); assay type: cell-based, human; conditions: tumor cells treated with the gap junction blocker before infection
Method: The next day, the cells were washed with FACS buffer (PBS, 0.1% sodium azide, 5% fetal bovin serum) and incubated for 10 min with blocking buffer (200 μg/mL mouse IgG in FACS buffer). Then, the cells were incubated for 20 minutes at +4° C. with BB7.2, an HLA-A2 conformation specific mouse antibody. The cells were washed twice with FACS buffer and fixed in paraformaldehyde for later acquisition by Accuri C6 Flow Cytometer (BD).
In order to investigate the release of MHC class I peptides by Salmonella infected tumor cells, inventors exploited the ability of exogenous peptides to stabilize the MHC class I complex on the surface of T2 cells. T2 are an HLA-A0201 hybrid human cell line lacking TAP-2 (transporter-associated with antigen processing) and consequently are defective in loading class I molecules with antigenic peptides generated in the cytosol. This leads to very unstable MHC class I molecules on the cell surface. […]
Briefly, inventors infected human melanoma cells SKmel-24 and colorectal adenocarcinoma cells HT29, with Vivofit®, an oral typhoid vaccine that contains live, attenuated cells of the bacteria Salmonella enterica serovar Thyphi (TY21a), and inventors collected the supernatant as described in Materials and Methods. […] Surface expression of HLA-A0201 was evaluated using a conformation-specific mouse antibody, as described in Materials and Methods.

Compound	Effect on antibody response to Salmonella antigens (Salmonella SL3261AT)	Effect on antibody response to B16 tumor peptides [1]	Effect on Salmonella-induced release of extracellular ATP [2]	Effect on CTL activation by supernatant of infected melanoma cells ([3]; tumor cells treated with the gap junction blocker)	Effect on IFN-gamma production induced by supernatant immunization (C57BL/6J mice)	Effect on the MFI increase by supernatant of infected tumor cells [4]	Response of CTLs after exogenous addition of peptide ([3]; exogenous addition to blocker-treated condition)
CC(C)C[C@@H](C=O)NC(=O)[C@H](CC(C)C)NC(=O)[C@H](CC(C)C)NC(=O)OCc1ccccc1 [MG132] (Cbz-Leu-Leu-Leu-aldehyde)	reduced	reduced	–	–	–	–	–
CCCCCCCO [heptanol]	reduced	reduced	significantly reduced	significantly inhibits	reduced	abolished	–
Mart-1 (26-35): Mart-1 (26-35) peptide, positive control	–	–	–	–	–	–	restored completely the response
